From PMC5183552 (Neuropharmacology, 2016)
Like-named read-outs stand apart in the source and are kept apart here.

Columns and labels:
mice [1] = assay: Body temperature; type: in vivo, mouse
Human A2AAR [2] = biological target: T1, Human A2AAR (Homo sapiens, UniProt P29274); details: read-out: Ki, human A2AAR, cited from earlier work
Human A3AR [3] = biological target: T2, Human A3AR (Homo sapiens, UniProt P0DMS8); details: read-out: Ki, human A3AR; ref Franchetti et al, 2009; cited from earlier work
T2 sequence (P0DMS8 1-318): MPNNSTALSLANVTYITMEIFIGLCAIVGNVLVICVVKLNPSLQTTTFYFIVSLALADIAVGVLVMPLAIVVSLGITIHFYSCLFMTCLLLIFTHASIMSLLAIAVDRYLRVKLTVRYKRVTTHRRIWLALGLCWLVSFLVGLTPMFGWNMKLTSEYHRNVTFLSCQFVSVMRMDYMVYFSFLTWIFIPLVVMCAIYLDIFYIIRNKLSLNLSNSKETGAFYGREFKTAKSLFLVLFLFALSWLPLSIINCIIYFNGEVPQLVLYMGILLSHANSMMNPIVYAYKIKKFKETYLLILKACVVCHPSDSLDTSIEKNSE

mouse A3AR [4] = biological target: T3, mouse A3AR (Mus musculus, UniProt Q61618); assay: Radioligand binding, recombinant mouse A3AR in HEK-293 membranes
T3 sequence (Q61618 1-319): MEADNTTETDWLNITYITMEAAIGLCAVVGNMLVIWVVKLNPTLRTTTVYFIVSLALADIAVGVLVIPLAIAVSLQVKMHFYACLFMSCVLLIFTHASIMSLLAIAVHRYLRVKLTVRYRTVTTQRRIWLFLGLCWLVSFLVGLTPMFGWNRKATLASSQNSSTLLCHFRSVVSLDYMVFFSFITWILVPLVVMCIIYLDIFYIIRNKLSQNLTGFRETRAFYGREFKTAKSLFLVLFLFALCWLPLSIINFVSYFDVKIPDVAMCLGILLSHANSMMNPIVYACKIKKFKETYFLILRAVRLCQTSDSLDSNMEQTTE

mouse A1AR [5] = biological target: T4, mouse A1AR (Mus musculus, UniProt Q60612); assay: Radioligand binding, recombinant mouse A1AR in HEK-293 membranes
T4 sequence (Q60612 1-326): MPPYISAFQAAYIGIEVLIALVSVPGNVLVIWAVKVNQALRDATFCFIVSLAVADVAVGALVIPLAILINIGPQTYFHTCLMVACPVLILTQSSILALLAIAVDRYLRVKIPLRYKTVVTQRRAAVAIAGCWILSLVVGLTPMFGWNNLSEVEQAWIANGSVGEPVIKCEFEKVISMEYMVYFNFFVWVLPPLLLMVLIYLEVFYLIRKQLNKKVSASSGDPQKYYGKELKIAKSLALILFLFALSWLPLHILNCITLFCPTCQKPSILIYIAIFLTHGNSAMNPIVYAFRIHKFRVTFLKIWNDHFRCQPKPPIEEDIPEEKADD

mice [6] = assay: Indirect calorimetry; type: in vivo, mouse; details: i.p.
mice [7] = assay: Temperature gradient; type: in vivo, mouse
mouse = details: 0.5 mg/kg, ref Luongo et al, 2012; cited from earlier work
[8] = 500–3500 mg/kg, i.p.; ref Zhang et al, 2006; cited from earlier work
mouse A3AR [9] = biological target: T3, mouse A3AR; details: cited from earlier work
mouse A1AR [10] = biological target: T4, mouse A1AR; details: read-out: Ki, mouse A1AR, cited from earlier work
mouse A2AAR [11] = biological target: T5, mouse A2AAR (Mus musculus, UniProt Q60613); details: read-out: Ki, mouse A2AAR, 2006, cited from earlier work
Human A1AR = biological target: T6, Human A1AR (Homo sapiens, UniProt P30542); assay: Ligand binding affinity at human A1AR
T6 sequence (P30542 1-326): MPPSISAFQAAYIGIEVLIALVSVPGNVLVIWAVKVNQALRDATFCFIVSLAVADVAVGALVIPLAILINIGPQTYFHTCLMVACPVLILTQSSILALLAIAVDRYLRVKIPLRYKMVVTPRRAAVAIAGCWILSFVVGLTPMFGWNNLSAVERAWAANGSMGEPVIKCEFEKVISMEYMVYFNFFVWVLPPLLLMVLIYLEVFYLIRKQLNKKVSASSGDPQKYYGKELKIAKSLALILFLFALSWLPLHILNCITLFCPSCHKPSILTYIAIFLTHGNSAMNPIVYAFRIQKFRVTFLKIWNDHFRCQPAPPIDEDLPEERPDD

Human A3AR [12] = biological target: T2, Human A3AR; assay: Ligand binding affinity at human A3AR
mouse A2AAR [13] = biological target: T5, mouse A2AAR; assay: Radioligand binding, recombinant mouse A2AAR in HEK-293 membranes; details: read-out: % inhibition at 10 µM, mouse A2AAR
Human A2AAR [14] = biological target: T1, Human A2AAR; assay: Ligand binding affinity at human A2AAR
[15] = 3 mg/kg, i.p., raclopride 1 mg/kg, data not shown
[16] = C57BL/6J mice, 0.3–10 mg/kg, i.p.
[17] = Adora3−/− mice, 3 mg/kg, before the Tb nadir
[18] = C57BL/6J mice, 100 µg/mouse (~3.3 mg/kg), i.c.v.
[19] = C57BL/6J mice, 0.02–0.2 mg/kg, i.p., dose-dependent
[20] = C57BL/6J mice, 0.03–3 mg/kg, i.p.

T1 sequence (P29274 whole entry): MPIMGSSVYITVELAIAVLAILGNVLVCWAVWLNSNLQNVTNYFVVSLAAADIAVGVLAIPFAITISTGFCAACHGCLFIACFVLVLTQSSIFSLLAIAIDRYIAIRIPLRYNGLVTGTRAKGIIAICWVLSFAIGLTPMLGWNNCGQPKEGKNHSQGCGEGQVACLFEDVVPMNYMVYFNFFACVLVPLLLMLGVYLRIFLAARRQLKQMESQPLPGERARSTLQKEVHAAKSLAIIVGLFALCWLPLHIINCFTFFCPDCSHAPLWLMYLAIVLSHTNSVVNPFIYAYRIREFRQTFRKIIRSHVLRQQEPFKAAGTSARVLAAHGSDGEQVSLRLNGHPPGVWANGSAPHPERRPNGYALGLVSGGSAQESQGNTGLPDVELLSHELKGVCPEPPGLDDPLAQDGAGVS
T5 sequence (Q60613 whole entry): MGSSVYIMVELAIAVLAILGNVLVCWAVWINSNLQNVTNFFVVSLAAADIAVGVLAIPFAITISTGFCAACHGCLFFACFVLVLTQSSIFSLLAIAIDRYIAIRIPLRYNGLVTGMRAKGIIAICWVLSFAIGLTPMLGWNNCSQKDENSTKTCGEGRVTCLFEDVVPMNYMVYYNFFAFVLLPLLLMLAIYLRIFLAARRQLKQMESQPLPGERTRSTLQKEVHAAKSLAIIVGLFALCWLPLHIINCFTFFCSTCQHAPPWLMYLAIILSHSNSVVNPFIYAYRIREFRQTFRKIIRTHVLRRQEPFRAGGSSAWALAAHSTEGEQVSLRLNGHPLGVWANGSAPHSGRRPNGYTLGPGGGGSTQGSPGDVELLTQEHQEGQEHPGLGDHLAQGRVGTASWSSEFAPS

O[C@@H]1[C@H](O)[C@@H](CCl)O[C@H]1n1cnc2c(NC3CC4CCC3C4)ncnc21 (mixture of isomers) [Cl-ENBA, (±)-5'-chloro-5'-deoxy-N^6-endo-norbornyladenosine]
Effect of i.c.v. dosing on Tb in Adora1−/− mice (mice [1]; 15 µg/mouse, i.c.v.): greatly diminished | Hypothermia in mast cell-deficient Kit W-sh/W-sh mice (mice [1]; 1 mg/kg, i.p.): largely intact | Hypothermia in Adora1−/− mice vs wild type (mice [1]; 3 mg/kg, i.p.): largely abolished | Hypothermia in Adora1−/−;Adora3−/− mice (mice [1]; 3 mg/kg, i.p.): completely lost | Hypothermia in Adora3−/− mice vs wild type (mice [1]; 3 mg/kg, i.p.): remained present | Hypothermia in mast cell-deficient Kit W-sh/W-sh mice (mice [1]; 3 mg/kg, i.p.): significantly attenuated | Hypothermia after pretreatment with raclopride (mice [1]; [15]): not affected | Effect on Tb (mice [1]; [16]): dose-dependent hypothermia | Effect on physical activity (mice [1]; [16]): hypoactivity | Ki (Human A2AAR [2]; ref Franchetti et al, 2009): 1.34 µM | Ki (Human A3AR [3]): 1.29 µM | Ki (mouse A3AR [4]; read-out: Ki, mouse A3AR, current results, ±SEM): 2.41 ± 0.325 µM | Ki (mouse A1AR [5]; read-out: Ki, mouse A1AR, current results, ±SEM): 0.0002 ± 1e-05 µM | Time of TEE nadir (mice [6]; Adora3−/− mice, 3 mg/kg): ~ 50 min | Time of Tb nadir (mice [6]; Adora3−/− mice, 3 mg/kg): ~ 100 min | Effect on metabolic rate (total energy expenditure) (mice [6]; [17]): reduced metabolic rate | Effect on physical activity (mice [6]; [17]): reduced | Environmental temperature preference in thermal gradient (mice [7]; Adora3−/− mice, 3 mg/kg, i.p.): modest preference for a cooler place | Anti-nociceptive effect (mouse): anti-nociceptive

Nc1ncnc2c1ncn2[C@@H]1O[C@H](COP(=O)(O)O)[C@@H](O)[C@H]1O [AMP, adenosine 5'-monophosphate]
Hypothermia from i.c.v. dosing in Adora1−/− mice (mice [1]; 100 µg/mouse (~3.3 mg/kg), i.c.v.): not attenuated | Hypothermia in Adora1−/− mice (mice [1]; 100 mg/kg, i.p.): intact | Hypothermia in Adora1−/−;Adora3−/− double knockout mice (mice [1]; 100 mg/kg, i.p.): intact | Hypothermia in Adora3−/− mice (mice [1]; 100 mg/kg, i.p.): intact | Hypothermia in Kit W-sh/W-sh mice (mice [1]; 100 mg/kg, i.p.): partially intact | Hypothermia after pretreatment with raclopride (mice [1]; AMP 100 mg/kg, i.p., raclopride 2 mg/kg, data not shown): did not block | Hypothermia after pretreatment with pyrilamine (mice [1]; Adora1−/− mice, AMP 100 mg/kg, i.p., pyrilamine 10 mg/kg, data not shown): did not ablate | Effect on Tb, i.c.v. infusion (mice [1]; [18]): drop in Tb that was comparable to a 30-fold larger (100 mg/kg) systemic dose | Torpor induction by large doses [8]: induce torpor | Effect on metabolic rate (total energy expenditure) (mice [6]; C57BL/6J mice, 100 mg/kg): drop in metabolic rate that preceded the hypothermia | Time of TEE nadir (mice [6]; C57BL/6J mice, 100 mg/kg): ~ 40 min | Time of Tb nadir (mice [6]; C57BL/6J mice, 100 mg/kg): ~ 60 min | Ambient temperature preference (mice [7]; 100 mg/kg, i.p., not shown): did not observe a clear change | Activity in thermal gradient (mice [7]; [18]): without a significant drop in activity | Activity in thermal gradient (mice [7]; C57BL/6J mice, 300 mg/kg, i.p.): became immobile | Position in thermal gradient (mice [7]; C57BL/6J mice, 300 mg/kg, i.p.): moved to a cooler region

OC[C@H]1O[C@@H](n2cnc3c(NC4CCCC4)nc(Cl)nc32)[C@H](O)[C@@H]1O [CCPA, 2-chloro-N^6-cyclopentyladenosine]
Ki (mouse A3AR [9]; read-out: Ki, mouse A3AR, ref Alnouri et al, 2015): 0.016 µM | Ki (mouse A1AR [10]; ref Alnouri et al, 2015): 0.00027 µM

CCNC(=O)[C@H]1O[C@@H](n2cnc3c(N)nc(NCCc4ccc(CCC(=O)O)cc4)nc32)[C@H](O)[C@@H]1O [CGS21680]
Ki (mouse A3AR [4]): 0.048 ± 0.011 µM | Ki (mouse A1AR [5]): 0.193 ± 0.038 µM

OC[C@H]1O[C@@H](n2cnc3c(NC4CCCCC4)ncnc32)[C@H](O)[C@@H]1O [CHA, N^6-cyclohexyladenosine]
Hypothermia in Adora1−/− mice vs wild type (mice [1]; 0.05 mg/kg, i.p.): attenuated | Hypothermia in Adora1−/−;Adora3−/− double knockout mice (mice [1]; 0.05 mg/kg, i.p.): completely lost | Hypothermia in Adora3−/− mice vs wild type (mice [1]; 0.05 mg/kg, i.p.): attenuated | Effect on Tb (mice [1]; [19]): drop in Tb | Effect on duration of hypothermia (mice [1]; [19]): increase in duration of hypothermia | Effect on physical activity (mice [1]; [19]): reduced physical activity | Ki (mouse A1AR [5]): 0.00215 ± 0.00037 µM

OC[C@H]1O[C@@H](n2cnc3c(NC4CCCC4)ncnc32)[C@H](O)[C@@H]1O [CPA, N^6-cyclopentyladenosine]
Hypothermia in Adora1−/− mice vs wild type (mice [1]; 0.3 mg/kg, i.p.): not significantly attenuated | Hypothermia in Adora3−/− mice vs wild type (mice [1]; 0.3 mg/kg, i.p.): attenuated but still present | Effect on Tb (mice [1]; [20]): dose-dependent (0.03–3 mg/kg, i.p.) hypothermia | Effect on physical activity (mice [1]; [20]): reduction in physical activity

CNC(=O)[C@H]1O[C@@H](n2cnc3c(NCc4cccc(I)c4)nc(Cl)nc32)[C@H](O)[C@@H]1O [Cl-IB-MECA, 2-chloro-N6-(3-iodobenzyl)adenosine-5'-N-methylcarboxamide]
Ki (mouse A2AAR [11]; ref Ge et al): ~10 µM

CCCn1c(=O)c2[nH]c(C3CCCC3)nc2n(CCC)c1=O [DPCPX]
% inhibition at 10 µM, mouse A3AR (mouse A3AR [9]; 10 µM, ref Kreckler et al, 2006): 0% | Ki (mouse A2AAR [11]; ref Kreckler et al): 0.598 µM | Ki (mouse A1AR [10]; ref Kreckler et al, 2006): 0.0015 µM

CNC(=O)[C@H]1O[C@@H](n2cnc3c(NCc4cccc(I)c4)ncnc32)[C@H](O)[C@@H]1O [IB-MECA]
Ki (mouse A2AAR [11]; ref Ge et al): ~1 µM

O[C@@H]1[C@@H]2C[C@@H]2C(n2cnc3c(NC(C4CC4)C4CC4)nc(Cl)nc32)[C@@H]1O (stereo partly drawn) [MRS5474, (1R,2R,3S,5S)-4-(2-chloro-6-((dicyclopropylmethyl)amino)-9H-purin-9-yl)bicyclo[3.1.0]hexane-2,3-diol]
Receptor mediating hypothermia (Adora1−/− and Adora3−/− mice) (mice [1]; 3 mg/kg, i.p.): via A3AR, without a clear contribution from A1AR | Hypothermia after pretreatment with raclopride (mice [1]; [15]): not inhibited | Effect on Tb (mice [1]; mice, doses in Fig. S2A,B): dose-dependent hypothermia | Effect on physical activity (mice [1]; mice, doses in Fig. S2A,B and data not shown): hypoactivity | Ki (Human A2AAR [2]; ref Tosh et al, 2012b): 3.95 µM

COc1ccc(CN(CCN(C)C)c2ccccn2)cc1 [Pyrilamine, pyrilamine]
Effect of H1R antagonist on MRS5474-induced hypothermia (mice [1]; MRS5474 at dose selective for A3AR, inhibitor dosed 15 min before agonist): inhibited hypothermia | Effect of H1R antagonist on A1AR agonist-induced hypothermia (mice [1]; inhibitor dosed 15 min before agonist, Fig. S4A–D): did not block

O=S(=O)(O)c1ccc(Nc2ncnc3c2ncn3[C@@H]2O[C@H](CO)[C@@H](O)[C@H]2O)cc1 [SPA, N^6-(p-sulfo-phenyl)adenosine]
Ki (Human A1AR): 0.00792 ± 0.00155 µM | Ki (mouse A3AR [4]): 3.11 ± 0.183 µM | Ki (mouse A1AR [5]): 0.00108 ± 4e-05 µM | Selectivity for binding to mouse A1AR over A3AR (mouse A1AR [5]; from Table 1 Ki values): ~ 3000 fold | Ki (Human A3AR [12]): 0.246 ± 0.021 µM | inhibition at 10 µM (mouse A2AAR [13]): 33 ± 2% | Ki (Human A2AAR [14]): 3.78 ± 0.89 µM
